ChEMBL document CHEMBL1121587, “Synthesis of some new S-alkylated derivatives of 5-mercapto-2'-deoxyuridine as potential antiviral agents” (1980)

Tested on: HeLa
Test: Compound was evaluated for antiviral activity against Herpes simplex type 1 in HeLa TK- cells at 100 uM concentration
Format: functional, Homo sapiens

| SMILES | Virus titer [pfu/ml] |
| --- | --- |
| C=CCSc1cnc(O)nc1O | 65000000 |
| CSc1cn(O[C@H]2CC(O)[C@@H](CO)O2)c(=O)[nH]c1=O (stereo not given in full) | 5200000 |
| C#CSc1cnc(O)nc1O | 37000000 |
| C=CCSc1cn(O[C@H]2CC(O)[C@@H](CO)O2)c(=O)[nH]c1=O (stereo not given in full) | 5300000 |
| O=c1[nH]c(=O)n(O[C@H]2CC(O)[C@@H](CO)O2)cc1SCCO (stereo not given in full) | 38000000 |
